Laboratory results from ChEMBL document CHEMBL4270561, “Biological activity of doubly modified salinomycin analogs - Evaluation in vitro and ex vivo” (Eur J Med Chem, 2018).

Key:
[1] = Antiproliferative activity against human LoVo/DX cells at 100 ug/ml after 72 hrs by SRB assay relative to control; assay type: functional
[2] = tested on: SK-BR-3; experiment: Antiproliferative activity against human SK-BR-3 cells at 100 ug/ml after 72 hrs by SRB assay relative to control; assay type: functional
[3] = tested on: JIMT-1; experiment: Antiproliferative activity against human JIMT1 cells at 100 ug/ml after 72 hrs by SRB assay relative to control; assay type: functional
[4] = tested on: MCF7; experiment: Antiproliferative activity against human MCF7 cells after 72 hrs by SRB assay; assay type: functional, cell-based; conditions: MCF7, 72 h
[5] = tested on: LoVo; experiment: Antiproliferative activity against human LoVo cells at 100 ug/ml after 72 hrs by SRB assay relative to control; assay type: functional
[6] = Antiproliferative activity against human ALL5 cells at 10 uM after 120 hrs by MTT assay relative to control; assay type: functional
[7] = tested on: MCF-10A; experiment: Antiproliferative activity against human MCF10A cells at 100 ug/ml after 72 hrs by SRB assay relative to control; assay type: cell-based
[8] = Cell cycle arrest in human ALL5 cells assessed as accumulation at G2/M-phase at 5 times antiproliferative IC50 after 24 hrs by propidium iodide staining based flow cytometry (reference value: 7.98%); assay type: functional
[9] = Cell cycle arrest in human ALL5 cells assessed as accumulation at G0/G1 phase at 5 times antiproliferative IC50 after 48 hrs by propidium iodide staining based flow cytometry (reference value: 69.6%); assay type: functional
[10] = tested on: MCF-10A; experiment: Antiproliferative activity against human MCF10A cells after 72 hrs by SRB assay; assay type: cell-based
[11] = Cell cycle arrest in human ALL5 cells assessed as accumulation at G0/G1 phase at 5 times antiproliferative IC50 after 96 hrs by propidium iodide staining based flow cytometry (reference value: 69.8%); assay type: functional
[12] = Selectivity index, ratio of IC50 for human MCF10A cells to IC50 for human MCF7 cells; assay type: toxicity; conditions: MCF10A cells versus MCF7 cells, read-out: Ratio IC50
[13] = Cell cycle arrest in human ALL5 cells assessed as accumulation at G0/G1 phase at 5 times antiproliferative IC50 after 24 hrs by propidium iodide staining based flow cytometry (reference value: 79.7%); assay type: functional
[14] = Cell cycle arrest in human ALL5 cells assessed as accumulation at sub-G1 phase at 5 times antiproliferative IC50 after 96 hrs by propidium iodide staining based flow cytometry (reference value: 12%); assay type: functional
[15] = Selectivity index, ratio of IC50 for human MCF10A cells to IC50 for human JIMT1 cells; assay type: toxicity; conditions: MCF10A cells versus JIMT1 cells, read-out: Ratio IC50
[16] = Cell cycle arrest in human ALL5 cells assessed as accumulation at S-phase at 5 times antiproliferative IC50 after 96 hrs by propidium iodide staining based flow cytometry (reference value: 7.52%); assay type: functional
[17] = tested on: SK-BR-3; experiment: Antiproliferative activity against human SK-BR-3 cells after 72 hrs by SRB assay; assay type: functional, cell-based; conditions: SK-BR-3, 72 h
[18] = tested on: Breast carcinoma cell; experiment: Ex vivo antitumor activity against patient derived breast cancer tissue assessed as decrease in tumor cell proliferation at 18.5 uM by Ki-67 staining based immunohistochemical analysis; assay type: functional; conditions: Homo sapiens, TDE = time-dependent effect
[19] = Selectivity index, ratio of IC50 for human MCF10A cells to IC50 for human SK-BR-3 cells; assay type: toxicity; conditions: MCF10A cells versus SK-BR-3 cells, read-out: Ratio IC50
[20] = Cell cycle arrest in human ALL5 cells assessed as accumulation at G2/M-phase at 5 times antiproliferative IC50 after 48 hrs by propidium iodide staining based flow cytometry (reference value: 13.2%); assay type: functional
[21] = Antiproliferative activity against human ALL5 cells after 120 hrs by MTT assay; assay type: functional, cell-based; conditions: ALL5, 120 h
[22] = tested on: Breast carcinoma cell; experiment: Ex vivo antitumor activity against patient derived breast cancer tissue assessed as increase in number of dead tumor cells at 18.5 uM by H and E staining based immunohistochemical analysis; assay type: functional; conditions: Homo sapiens, TDE = time-dependent effect
[23] = Selectivity index, ratio of IC50 for human MCF10A cells to IC50 for human LoVo cells; assay type: toxicity; conditions: MCF10A cells versus LoVo cells, read-out: Ratio IC50
[24] = tested on: JIMT-1; experiment: Antiproliferative activity against human JIMT1 cells after 72 hrs by SRB assay; assay type: functional, cell-based; conditions: JIMT-1, 72 h
[25] = Selectivity index, ratio of IC50 for human MCF10A cells to IC50 for human LoVo/DX cells; assay type: toxicity; conditions: MCF10A cells versus LoVo/DX cells, read-out: Ratio IC50
[26] = Cell cycle arrest in human ALL5 cells assessed as accumulation at sub-G1 phase at 5 times antiproliferative IC50 after 24 hrs by propidium iodide staining based flow cytometry (reference value: 6.07%); assay type: functional
[27] = Antiproliferative activity against human LoVo/DX cells after 72 hrs by SRB assay; assay type: functional, cell-based
[28] = Cell cycle arrest in human ALL5 cells assessed as accumulation at S-phase at 5 times antiproliferative IC50 after 48 hrs by propidium iodide staining based flow cytometry (reference value: 9.82%); assay type: functional
[29] = Resistance index, ratio of IC50 for human LoVo/DX cells to IC50 for human LoVo cells; assay type: functional
[30] = Selectivity index, ratio of IC50 for human MCF10A cells to IC50 for human ALL5 cells; assay type: toxicity; conditions: MCF10A cells versus ALL5 cells, read-out: Ratio IC50
[31] = Cell cycle arrest in human ALL5 cells assessed as accumulation at sub-G1 phase at 5 times antiproliferative IC50 after 48 hrs by propidium iodide staining based flow cytometry (reference value: 7.8%); assay type: functional
[32] = tested on: LoVo; experiment: Antiproliferative activity against human LoVo cells after 72 hrs by SRB assay; assay type: functional, cell-based
[33] = Cell cycle arrest in human ALL5 cells assessed as accumulation at G2/M-phase at 5 times antiproliferative IC50 after 96 hrs by propidium iodide staining based flow cytometry (reference value: 11.1%); assay type: functional
[34] = Cell cycle arrest in human ALL5 cells assessed as accumulation at S-phase at 5 times antiproliferative IC50 after 24 hrs by propidium iodide staining based flow cytometry (reference value: 6.76%); assay type: functional

SMILES: CCOC(=O)O[C@@H]1C=C[C@]2(O[C@H]([C@@H](CC)C(=O)[C@@H](C)[C@@H](O)[C@H](C)[C@@H]3O[C@@H]([C@@H](CC)C(=O)OCC(F)(F)F)CC[C@@H]3C)[C@@H](C)C[C@H]2C)O[C@@]12CC[C@@](C)([C@H]1CC[C@](O)(CC)[C@H](C)O1)O2
- Activity [1]: <=50%
- Activity [2]: <=50%
- Activity [3]: <=50%
- IC50 [4]: 68 µM
- Activity [5]: <=50%
- Activity [6]: <=50%
- Activity [7]: <= 50%

SMILES: CC[C@@H](C(=O)[C@@H](C)[C@@H](O)[C@H](C)[C@@H]1O[C@@H]([C@@H](CC)C(=O)NCCc2ccc(F)cc2)CC[C@@H]1C)[C@H]1O[C@]2(C=C[C@@H](OC(C)=O)[C@]3(CC[C@@](C)([C@H]4CC[C@](O)(CC)[C@H](C)O4)O3)O2)[C@H](C)C[C@@H]1C
- Activity [8]: 5.08%
- Activity [9]: 65.6%
- IC50 [10]: 43 µM
- Activity [11]: 47.3%
- selectivity ratio [12]: 12
- Activity [13]: 79.9%
- Activity [14]: 49.3%
- selectivity ratio [15]: 12
- Activity [16]: 1.55%
- IC50 [17]: 3.8 µM
- Activity [18]: Tde
- IC50 [4]: 3.7 µM
- selectivity ratio [19]: 11
- Activity [20]: 5.2%
- IC50 [21]: 1.8 µM
- Activity [22]: Tde
- selectivity ratio [23]: 11
- IC50 [24]: 3.7 µM
- selectivity ratio [25]: 12
- Activity [26]: 11%
- IC50 [27]: 3.5 µM
- Activity [28]: 2.15%
- Ratio IC50 [29]: 0.88
- selectivity ratio [30]: 24
- Activity [31]: 27.4%
- IC50 [32]: 4 µM
- Activity [33]: 1.96%
- Activity [34]: 4.18%
